ChEMBL document CHEMBL1201862, “PubChem BioAssay data set” (2004)
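Test compounds were applied to cells in 96-well plates for 48 hours at 5 doses. At the GI50, growth is halved.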 Activity calls are given as the source filed them. Cut-off read from the data, not from the text of the source: active = GI50 up to about 1.1 µM and inactive = higher.

Experiments:
Test in all cases: inhibition of tumour cell growth, NCI panel, 48 h
SK-MEL-28 = system: SK-MEL-28
OVCAR-4 = system: OVCAR-4
HCT-15 = system: HCT-15
SK-OV-3 = system: SK-OV-3
NCI-H522 = system: NCI-H522
SF-539 = system: SF-539
HL-60 = system: HL-60
UACC-62 = system: UACC-62
ACHN = system: ACHN
LOX IMVI = system: LOX IMVI
NCI-H460 = system: NCI-H460
A498 = system: A498
HOP-92 = system: HOP-92
M14 = system: M14
OVCAR-8 = system: OVCAR-8
SW-620 = system: SW-620

Row | SMILES | GI50 (SK-MEL-28) | GI50 (OVCAR-4) | GI50 (HCT-15) [µM] | GI50 (SK-OV-3) | GI50 (NCI-H522) | GI50 (SF-539) | GI50 (HL-60) | GI50 (UACC-62) | GI50 (ACHN) | GI50 (LOX IMVI) | GI50 (NCI-H460) | GI50 (A498) | GI50 (HOP-92) | GI50 (M14) | GI50 (OVCAR-8) | GI50 (SW-620)
1 | NC1=C(Br)C(=O)c2ncccc2C1=O | 0.34 µM (active) | 1.37 µM (inactive) | 0.352 | 1.81 µM (inactive) | 0.321 µM (active) | 0.189 µM (active) | 0.505 µM (active) | 0.232 µM (active) | 0.406 µM (active) | 0.137 µM (active) | 0.393 µM (active) | 3.72 µM (inactive) | 1.45 µM (inactive) | 0.673 µM (active) | 0.531 µM (active) | 0.466 µM (active)
2 | C[N+](C)(C)Cc1c(CC#N)[nH]c2ccccc12 | > 100 µM (inactive) | 1.2 µM (inactive) | > 100 | – | 36.8 µM (inactive) | > 100 µM (inactive) | 36.9 µM (inactive) | > 100 µM (inactive) | > 100 µM (inactive) | > 100 µM (inactive) | > 100 µM (inactive) | > 100 µM (inactive) | – | 84.7 µM (inactive) | > 100 µM (inactive) | > 100 µM (inactive)
3 | NC(=O)CCC(NC(=O)Cc1ccccc1)C(=O)O.NC(CCC(=O)NC(=O)Cc1ccccc1)C(=O)O (configuration not stated) | > 8130 µM (inactive) | > 8130 µM (inactive) | – | > 8130 µM (inactive) | > 8130 µM (inactive) | > 8130 µM (inactive) | > 8130 µM (inactive) | > 8130 µM (inactive) | – | – | – | > 8130 µM (inactive) | > 8130 µM (inactive) | > 8130 µM (inactive) | > 8130 µM (inactive) | > 8130 µM (inactive)
4 | COc1ccc2c3c(c(C(=O)c4ccccc4)oc13)CCC2 | > 100 µM (inactive) | > 100 µM (inactive) | > 100 | > 100 µM (inactive) | – | > 100 µM (inactive) | > 100 µM (inactive) | > 100 µM (inactive) | > 100 µM (inactive) | > 100 µM (inactive) | > 100 µM (inactive) | > 100 µM (inactive) | < 0.01 µM (active) | > 100 µM (inactive) | > 100 µM (inactive) | > 100 µM (inactive)
5 | C/C(CC(=O)N(C(C)C)C(C)C)=N\NC(=O)c1ccncc1 | > 100 µM (inactive) | > 100 µM (inactive) | > 100 | > 100 µM (inactive) | > 100 µM (inactive) | > 100 µM (inactive) | > 100 µM (inactive) | > 100 µM (inactive) | > 100 µM (inactive) | > 100 µM (inactive) | – | > 100 µM (inactive) | > 100 µM (inactive) | > 100 µM (inactive) | > 100 µM (inactive) | > 100 µM (inactive)
6 | Cn1c(C2CC(C)(C)c3c2c2ccccc2n3C)cc2ccccc21 (configuration not stated) | > 304 µM (inactive) | – | > 304 | > 304 µM (inactive) | 72.8 µM (inactive) | 79.4 µM (inactive) | > 304 µM (inactive) | > 304 µM (inactive) | > 304 µM (inactive) | > 304 µM (inactive) | > 304 µM (inactive) | – | 40.9 µM (inactive) | – | > 304 µM (inactive) | > 304 µM (inactive)
7 | O=Cc1cn(S(=O)(=O)c2ccccc2)c2ccccc12 | 32.4 µM (inactive) | 33.6 µM (inactive) | 35.2 | > 100 µM (inactive) | – | 27.5 µM (inactive) | 16.7 µM (inactive) | 26.9 µM (inactive) | > 100 µM (inactive) | 20.6 µM (inactive) | > 100 µM (inactive) | > 100 µM (inactive) | – | 31.3 µM (inactive) | 33.5 µM (inactive) | 35.5 µM (inactive)
8 | COc1ccc2c3c([nH]c2c1[N+](=O)[O-])C(C)N(Cc1ccccc1)CC3 (configuration not stated) | 7.69 µM (inactive) | 13.9 µM (inactive) | 3.61 | – | – | 1.79 µM (inactive) | 2.18 µM (inactive) | 3.1 µM (inactive) | 6.31 µM (inactive) | 3.91 µM (inactive) | 2.94 µM (inactive) | 2.4 µM (inactive) | – | 3.76 µM (inactive) | 3.72 µM (inactive) | 2.11 µM (inactive)
9 | CC(=O)n1ccc2c(Cl)ncnc21 | > 100 µM (inactive) | – | > 100 | > 100 µM (inactive) | > 37.6 µM (inactive) | > 100 µM (inactive) | > 100 µM (inactive) | > 100 µM (inactive) | > 100 µM (inactive) | > 100 µM (inactive) | > 100 µM (inactive) | > 100 µM (inactive) | > 100 µM (inactive) | > 100 µM (inactive) | > 100 µM (inactive) | > 100 µM (inactive)
10 | Nc1nc(SCCNC(=O)CCc2ccc(O)cc2)nc2c1ncn2C1OC(CO)C(O)C1O (configuration not stated) | > 203 µM (inactive) | > 203 µM (inactive) | > 203 | > 203 µM (inactive) | > 203 µM (inactive) | > 203 µM (inactive) | > 203 µM (inactive) | > 203 µM (inactive) | > 203 µM (inactive) | > 203 µM (inactive) | > 203 µM (inactive) | > 203 µM (inactive) | > 203 µM (inactive) | > 203 µM (inactive) | > 203 µM (inactive) | > 203 µM (inactive)
11 | O=C(c1ccccc1)c1nc2c(Cl)ccc(Cl)c2cc1C(Br)Br | 0.215 µM (active) | 1.82 µM (inactive) | 0.69 | – | 1.54 µM (inactive) | 0.484 µM (active) | – | 1.25 µM (inactive) | 0.243 µM (active) | 1.65 µM (inactive) | – | – | – | 1.4 µM (inactive) | 1.44 µM (inactive) | 0.308 µM (active)
12 | Cc1ccc(C)c2c1CCc1cc3ccccc3nc1-2 | > 100 µM (inactive) | > 100 µM (inactive) | > 100 | > 100 µM (inactive) | > 100 µM (inactive) | > 100 µM (inactive) | – | > 100 µM (inactive) | > 100 µM (inactive) | – | > 100 µM (inactive) | > 100 µM (inactive) | – | > 100 µM (inactive) | > 100 µM (inactive) | > 100 µM (inactive)
13 | O=C1C2=C(c3ccccc31)C(c1ccc(F)cc1)N1C(=O)CCSC1=N2 (configuration not stated) | > 100 µM (inactive) | 56 µM (inactive) | 98.4 | > 100 µM (inactive) | 72.8 µM (inactive) | > 100 µM (inactive) | 65.6 µM (inactive) | 62.1 µM (inactive) | > 100 µM (inactive) | – | > 100 µM (inactive) | > 100 µM (inactive) | 24.7 µM (inactive) | > 100 µM (inactive) | > 100 µM (inactive) | > 100 µM (inactive)
14 | Cc1ccc(C)c(NC(=O)C(=O)C(C2C(C)CC(=O)C2CC(=O)O)[N+](=O)[O-])c1 (configuration not stated) | > 100 µM (inactive) | > 100 µM (inactive) | > 100 | > 100 µM (inactive) | – | > 100 µM (inactive) | > 100 µM (inactive) | > 100 µM (inactive) | > 100 µM (inactive) | > 100 µM (inactive) | > 100 µM (inactive) | > 100 µM (inactive) | > 100 µM (inactive) | > 100 µM (inactive) | – | > 100 µM (inactive)
15 | O=c1c2ccccc2c2c3c1cccc3c1cccc3c(=O)c4ccccc4c2c31 | > 100 µM (inactive) | > 100 µM (inactive) | > 100 | > 100 µM (inactive) | > 100 µM (inactive) | > 100 µM (inactive) | > 10 µM (inactive) | > 100 µM (inactive) | > 100 µM (inactive) | > 100 µM (inactive) | > 100 µM (inactive) | > 100 µM (inactive) | > 100 µM (inactive) | > 100 µM (inactive) | > 100 µM (inactive) | > 100 µM (inactive)
16 | CC/C=C1\N=C(c2ccc(Cl)cc2)OC1=O | > 100 µM (inactive) | > 100 µM (inactive) | > 100 | > 100 µM (inactive) | > 100 µM (inactive) | > 100 µM (inactive) | > 100 µM (inactive) | > 100 µM (inactive) | > 100 µM (inactive) | > 100 µM (inactive) | > 100 µM (inactive) | > 100 µM (inactive) | > 100 µM (inactive) | > 100 µM (inactive) | > 100 µM (inactive) | > 100 µM (inactive)
17 | O=C(/C=C/c1c(O)ccc2ccccc12)c1ccc([N+](=O)[O-])cc1 | 30.1 µM (inactive) | 18.5 µM (inactive) | 25.2 | > 100 µM (inactive) | 17 µM (inactive) | 37.8 µM (inactive) | 9.77 µM (inactive) | 17.4 µM (inactive) | 22.1 µM (inactive) | 16.7 µM (inactive) | 46.9 µM (inactive) | > 100 µM (inactive) | 16.1 µM (inactive) | 19.8 µM (inactive) | 37.2 µM (inactive) | 25.2 µM (inactive)
18 | COc1ccc(C2=NC(C)(C)CO2)cc1 | > 100 µM (inactive) | > 100 µM (inactive) | > 100 | – | – | > 100 µM (inactive) | > 100 µM (inactive) | > 100 µM (inactive) | > 100 µM (inactive) | 82.6 µM (inactive) | > 100 µM (inactive) | > 100 µM (inactive) | > 100 µM (inactive) | – | > 100 µM (inactive) | > 100 µM (inactive)
19 | CC1CC2CC(=O)CC3(C1)C2CCCN3CCCO (configuration not stated) | > 100 µM (inactive) | > 100 µM (inactive) | – | > 100 µM (inactive) | > 100 µM (inactive) | > 100 µM (inactive) | > 100 µM (inactive) | > 100 µM (inactive) | > 100 µM (inactive) | > 100 µM (inactive) | > 100 µM (inactive) | > 100 µM (inactive) | > 100 µM (inactive) | > 100 µM (inactive) | > 100 µM (inactive) | > 100 µM (inactive)
